Publication PMC12505902, “Inhibitors of trehalose-6-phosphate synthase activity in fungal pathogens compromise thermal tolerance pathways” (mBio, 2025)
Like-named read-outs stand apart in the source and are kept apart here.

Tests used:
C. glabrata (CBS138) = test: MIC dose-response assay in YPD; type: cell-based
Method: Fig 4 4456dh inhibits the growth of Candida and Cryptococcus species. […] 4456dh was administered at the concentrations indicated. Cultures were grown in YPD at the listed temperatures for 48 hours for Candida species and 72 hours for Cryptococcus species. Experimental temperatures reflect the temperatures at which the fungi experience heat stress. Left: relative growth of treated samples was calculated by averaging technical triplicates and normalizing the OD600 of each treated well to the average OD600 of the untreated WT controls, after the absorbance due to the compound was subtracted. The MIC80 values, calculated based on the OD600 values, are indicated in the white text on each heat map. Right: representative spot assays show the ability of cells to grow after exposure to 4456dh and indicate fungicidal activity of 4456dh. […]
Furthermore, there was significant fungicidal activity of 4456dh on C. glabrata in concentrations starting at approximately 7.8 µM (Fig. 4B).
77 and 5 mM imidazole. The protein was eluted with increasing amounts of imidazole in the wash
78 buffer. The fractions containing 6xHis-CnTps1 were pooled, reduced to 5 mL and purified further
79 using S200 size exclusion column chromatography (HiLoad 26/600 Superdex 200pg, Cytiva) […]
82 determined by SDS-PAGE analysis, were pooled and concentrated to 1 mg/mL for downstream […]
93 The data were acquired with MO.Control 1.5.3 (NanoTemper Technologies GmbH). Recorded
94 data were analyzed with MO.Affinity Analysis 2.2.7 (NanoTemper Technologies GmbH). […]
100 2X Glo-melt dye. Thermal denaturation was measured using an RT-PCR thermocycler (BioRad) […]
102 determined by identifying the inflection point of the derivative data. […]
104 The catalytic activity of C. albicans Tps1 and C. neoformans Tps1 was measured via a continuous […]
110 bottomed 96-well microtiter plates and the decrease in absorbance at 340 nm during the initial
111 reaction rate was recorded using a plate reader (Tecan). The decrease in absorbance was
112 analyzed for the first 200s of the kinetic reaction. […]

[1] = test system: C. albicans WT strain SC5314; test: C. albicans filamentation assay (serum-induced); type: cell-based; settings: YPD plus 10% fetal bovine serum, 37°C, 2 hours; sub-MIC concentration (5 µM as printed)

## Cn1cc(-c2csc(NC(=O)Cc3ccccn3)n2)cn1 [Compound 4456dh]
C. glabrata (CBS138); 30°C, YPD
  MIC80: no MIC or fungicidal activity was detected
C. glabrata (CBS138); Nakaseomyces glabratus, CBS138, 42°C, YPD, 48 hours, read-out: MIC80
  MIC80: 7.8 µM
C. glabrata (CBS138); Nakaseomyces glabratus, CBS138, Supplemental Table 5, This publication, read-out: MIC80
  MIC80: 3.1 µg/mL
[1]
  filamentation: complete inhibition of filamentation
